In US20220089602A1, “COMPOUNDS THAT INDUCE FERROPTIC CELL DEATH” (The Board of Trustees of the University of Illinois, priority 2019, published 2022):
pIC50: −log10 of the molar value.

Columns and labels:
Format in all cases: cell-based
[1] = tested on: HT-29 cells; test: RNA sequencing of treated cells; settings: 10 μM, 6 hr
Protocol: Total RNA was extracted by RNeasy Kit (QIAGEN) and digested with DNase (QIAGEN) from n=2 samples per condition (DMSO, 10 μM ferroptocide cells treated for 6 hr). RNA quality was assessed with a 2100 Agilent Bioanalyzer prior to library preparation. The RNAseq libraries were prepared using the TruSeq Stranded mRNAseq Sample Prep kit (version 1) following manufacturer's instruction (Illumina). Libraries were then quantified, pooled, and sequenced by single-end 150 base pairs using the Illumina HiSeq 4000 platform at the Roy J. Carver Biotechnology center. FASTQ files were generated and demultiplexed with the bcl2FASTQ v2.17.1.14 Conversion Software (Illumina). Libraries were sequenced at an average depth of 40-50 million reads per sample. Trimmomatic (v0.36) was utilized to remove sequencing adapters, low-quality bases (PHRED score <28), and reads less than 30 bases in length. Pseudo-alignment and transcript-level counting to NCBI's GRCh38.p11 transcriptome was then performed with Salmon (v 0.8.2) in quasi-mapping mode while correcting for sequence-specific and GC biases, and generating 30 bootstraps. Counts summarized to the gene level (NCBI annotation release 108) using tximport (v 1.6.0) and the “lengthScaledTPM” method. The counts were normalized using the TMM method from edgeR (v 3.20.5) and then transformed to log 2 counts per million (log CPM) with prior.count=3. Genes without at least log CPM>log 2(0.5) in at least 3 samples were filtered out, leaving 16,743 genes for differential expression testing. TMM normalization was re-done after filtering and then limma's (v 3.34.5) voom method was used to find differentially expressed genes for the pairwise comparisons of treatment vs. control in A549, and treatment vs. control in HT29 (batch 2 and 3, 8 samples total, 6 hr), and the interaction between treatment and cell line. P values were adjusted for multiple hypothesis testing with the Benjamini-Hochberg method to generate false discovery rates. Gene set enrichment analysis was done using ESGEA (v 1.6.1) for the Gene Ontology BP, CC and MF gene sets, KEGG pathway gene sets, and Pathway gene sets. The RNA sequencing data have been deposited to the GEO repository with the accession number GSE126868.

[2] = tested on: HCT 116 cells; test: Cellular lipid ROS production (C11-BODIPY); settings: 10 μM
Protocol: (§1) ES-2, HCT 116, and 4T1 cells (1×10^5 cells/mL) were plated in 12-well plates. Cells were pre-treated for 2 hr with 100 μM deferoxamine followed by treatment with DMSO, 10 μM ferroptocide, 10 μM RSL3, or 100 μM TBHP for 1 hr, 1.5 hr and 2 hr respectively. Cells were washed with HBSS and incubated in the dark for 20 min with 5 μM C11-BODIPY probe. Cells were then washed 2× with HBSS and harvested at 1000×g, 3 min. After resuspension in 500 μl HBSS buffer, samples were analyzed with flow cytometry to record ten thousand events per sample in FL1 channel in BD LSR II Flow Cytometer (BD Bioscience). FCS express V6 De Novo software was used to generate histograms.

[3] = tested on: ES-2 cells; test: Cellular lipid ROS production (C11-BODIPY); settings: 10 μM
Protocol: as §1

[4] = target: T1, thioredoxin (Homo sapiens, UniProt P10599); test: Thioredoxin activity assay in cell lysate; settings: 30 min treatment, HCT 116 cells; versus PMX464 and PX-12 (50 μM)
T1 construct: endogenous in cells
T1 sequence (P10599 whole entry): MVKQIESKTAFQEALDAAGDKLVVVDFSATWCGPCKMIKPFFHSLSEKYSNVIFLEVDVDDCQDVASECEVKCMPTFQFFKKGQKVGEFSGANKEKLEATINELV
Protocol: HCT 116 cells (1×10^6 cells/flask) were treated with DMSO, 10 μM ferroptocide, 50 μM PMX464, or 50 μM PX-12 for 30 min. Cells were harvested by centrifugation, resuspended in the assay buffer and lysed via sonication. For each condition, 20 μg of cell lysate was used to measure the activity thioredoxin activity following manufacturer' protocol (Cayman Chemical, Fluorescent Thioredoxin Activity Assay kit #20039) in a 96-well black-walled plate. For in vitro studies, human thioredoxin (10 μL of 0.2 μM solution) was used in addition to thioredoxin reductase (10 μL of 1.0 μM solution), 1 μl of DMSO, ferroptocide, […], or PX-12 at indicated concentrations, 5 μL of NADPH (diluted according to manufacturer's instructions), and assay buffer to a final volume of 75 μL. The plate was incubated at 37° C. for 30 min followed by immediate addition of 20 μL fluorescent substrate per each well (diluted as instructed in the assay kit). Fluorescence was monitored over 1 hr at 520 nm after excitation at 480 nm in a SpectraMax M3 (Molecular Devices) instrument at 37° C.

[5] = tested on: ES-2 cell line; test: 72 hr cell viability assay (Alamar Blue), dose response IC50; settings: Homo sapiens; 72 hr, ES-2 cell line, Alamar Blue fluorescence, mean ± s.e.m., n ≥ 3
Protocol: 40 μL of media was added to each well of a 384-well tissue culture-treated plate. 3×100 nL of compound in DMSO was then pin-transferred from compound storage plates (2 mM stocks) into media-containing wells using the Platemate Plus at the UIUC High Throughput Screening Facility. A 100,000 cells/mL suspension of ES-2 cells was prepared, and 10 μL was added to each well for a final concentration of 1000 cells/well. Doxorubicin (100 μM final) was used as a positive control. Plates were sealed with gas-permeable seals and incubated at 37° C. for 72 h. After incubation, 5 μL of Alamar blue (440 μM resazurin in sterile PBS) was added and allowed to incubate for 3-4 h, until visible color change occurred. Fluorescence was measured in a Molecular Devices SpectraMax 3 (excitation=555 nm, emission=585 nm, emission cutoff=570 nm).
To a 384-well plate, 40 μL of 1.25× compound dilution or 1.25% DMSO-containing media was added (final volume of 1% DMSO). Concentrations of compounds tested were 100 μM to 100 nM. On each plate at least 3 technical replicates per compound were performed. Next, 10 μL of a 100,000 cells/mL suspension was added to each well, yielding a final concentration of 1,000 cells/well. To three wells in column 2 was added 1 μL of 10 mM doxorubicin (final concentration of 200 μM) as positive control of cell death. Plates were sealed with gas-permeable seals and incubated at 37° C. for 72 h. At that time, 5 μL of Alamar blue (440 μM resazurin in sterile PBS) was added and plates were incubated for 3-4 hours. Fluorescence was read on a Molecular Devices SpectraMax 3 (excitation=555 nm, emission=585 nm, emission cutoff=570 nm). Wells were normalized to the average of untreated wells (0% cell death). The data were plotted as compound concentration versus percent dead cells and fitted to a logistic-dose response curve using OriginPro 2015 (OriginLab, Northampton, Mass.). The data were generated in triplicate, and IC50 values are reported as the average of three separate experiments along with standard error of the mean.

SMILES: C[C@@H]1CC[C@@]23C[C@H](O)C(=O)[C@@]2(O)[C@]1(C)[C@H](OC(=O)CCl)C[C@@H](C1=CCn2c(=O)n(-c4ccccc4)c(=O)n2C1)[C@@H]3C [Compound P18, ferroptocide]
- genes involved in ferroptosis modulated ([1]; FDR ≤0.05): 35/40
- ATF3 upregulation (RNA-seq) ([1]; HT-29): 11.5 fold
- CHAC1 upregulation (RNA-seq) ([1]; HT-29): 9.8 fold
- DDIT3 upregulation (RNA-seq) ([1]; HT-29): 22.5 fold
- DDIT4 upregulation (RNA-seq) ([1]; HT-29): 11.3 fold
- GCLC upregulation (RNA-seq) ([1]; HT-29): 3.5 fold
- GCLM upregulation (RNA-seq) ([1]; HT-29): 4.9 fold
- SLC7A11 upregulation (RNA-seq) ([1]; HT-29): 8.1 fold
- lipid ROS [2]: induces lipid ROS
- lipid ROS [3]: induces lipid ROS
- thioredoxin activity in cell lysate [4]: significantly reduced the activity of thioredoxin
- pIC50 [5]: 5.80
